Laboratory results published in US20150344540A1, “NOVEL GLP-1 RECEPTOR AGONISTS WITH CHOLESTEROL EFFLUX ACTIVITY” (NOVO NORDISK A/S, priority 2012, published 2015).
Where a SMILES comes first, the peptide text is derived from it. [ ]: non-standard residue; d: D form. Aib = CC(C)(N)C(=O)O

Test system: Mouse monocyte/macrophage cell line, RAW 264.7
Assay: Cholesterol efflux assay (3H-cholesterol, macrophage cell line)
Type: cell-based
Details: RAW 264.7, 4 hrs incubation, 0.1% human serum albumin, ABCA1-mediated efflux

| SMILES | 4 h Cholesterol Efflux Emax [%] |
| --- | --- |
| CC[C@H](C)[C@H](NC(=O)[C@H](Cc1ccccc1)NC(=O)[C@H](CCC(=O)O)NC(=O)[C@H](CCCNC(=N)N)NC(=O)[C@H](C)NC(=O)[C@H](CCCNC(=N)N)NC(=O)[C@H](CCCCN)NC(=O)CNC(=O)[C@H](CCC(=O)O)NC(=O)[C@H](CC(C)C)NC(=O)[C@H](Cc1ccc(O)cc1)NC(=O)[C@H](CO)NC(=O)[C@H](CO)NC(=O)[C@@H](NC(=O)[C@H](CC(=O)O)NC(=O)[C@H](CO)NC(=O)[C@@H](NC(=O)[C@H](Cc1ccccc1)NC(=O)[C@@H](NC(=O)CNC(=O)[C@H](CCC(=O)O)NC(=O)C(C)(C)NC(=O)[C@@H](N)Cc1c[nH]cn1)[C@@H](C)O)[C@@H](C)O)C(C)C)C(=O)N[C@@H](C)C(=O)N[C@@H](Cc1c[nH]c2ccccc12)C(=O)N[C@@H](CC(C)C)C(=O)N[C@H](C(=O)N[C@@H](CCC(=O)O)C(=O)N[C@@H](CCCCN)C(=O)NC(C)(C)C(=O)N[C@@H](CCCCN)C(=O)N[C@@H](CCC(=O)O)C(=O)N[C@@H](Cc1ccccc1)C(=O)N[C@@H](CC(C)C)C(N)=O)C(C)C [Compound 52, [Aib8,Lys23,Arq24,Arq26,Glu34,Lys35,Aib36,Lys37]-GLP-1-(7-37)-peptidyl-Glu-Phe-Leu amide] (H-H[Aib]EGTFTSDVSSYLEGKRAREFIAWLVEK[Aib]KEFL-NH2) | 98 |
| CC[C@H](C)[C@H](NC(=O)[C@H](Cc1ccccc1)NC(=O)[C@H](CCC(=O)O)NC(=O)[C@H](CCCCN)NC(=O)[C@@H](NC(=O)[C@H](CCCCN)NC(=O)[C@H](CCC(=O)O)NC(=O)CNC(=O)[C@H](CCC(=O)O)NC(=O)[C@H](CC(C)C)NC(=O)[C@H](Cc1ccc(O)cc1)NC(=O)[C@H](CO)NC(=O)[C@H](CO)NC(=O)[C@@H](NC(=O)[C@H](CC(=O)O)NC(=O)[C@H](CO)NC(=O)[C@@H](NC(=O)[C@H](Cc1ccccc1)NC(=O)[C@@H](NC(=O)CNC(=O)[C@H](CCC(=O)O)NC(=O)C(C)(C)NC(=O)[C@@H](N)Cc1c[nH]cn1)[C@@H](C)O)[C@@H](C)O)C(C)C)C(C)C)C(=O)N[C@@H](C)C(=O)N[C@@H](Cc1c[nH]c2ccccc12)C(=O)N[C@@H](CC(C)C)C(=O)N[C@H](C(=O)N[C@@H](CCC(=O)O)C(=O)N[C@@H](CCCCN)C(=O)NC(C)(C)C(=O)N[C@@H](CCCCN)C(=O)N[C@@H](CCC(=O)O)C(=O)N[C@@H](Cc1ccccc1)C(=O)N[C@@H](CC(C)C)C(N)=O)C(C)C [Compound 60, [Aib8,Glu23,Lys24,Val25,Glu34,Lys35,Aib36,Lys37]-GLP-1-(7-37)-peptidyl-Glu-Phe-Leu amide] (H-H[Aib]EGTFTSDVSSYLEGEKVKEFIAWLVEK[Aib]KEFL-NH2) | 111 |
| CC[C@H](C)[C@H](NC(=O)[C@H](Cc1ccccc1)NC(=O)[C@H](CCC(=O)O)NC(=O)[C@H](CCCCN)NC(=O)[C@@H](NC(=O)[C@H](CCCCN)NC(=O)[C@H](CCC(=O)O)NC(=O)CNC(=O)[C@H](CCC(=O)O)NC(=O)[C@H](CC(C)C)NC(=O)[C@H](Cc1ccc(O)cc1)NC(=O)[C@H](CO)NC(=O)[C@H](CO)NC(=O)[C@@H](NC(=O)[C@H](CC(=O)O)NC(=O)[C@H](CO)NC(=O)[C@@H](NC(=O)[C@H](Cc1ccccc1)NC(=O)[C@@H](NC(=O)CNC(=O)[C@H](CCC(=O)O)NC(=O)C(C)(C)NC(=O)[C@@H](N)Cc1c[nH]cn1)[C@@H](C)O)[C@@H](C)O)C(C)C)C(C)C)C(=O)N[C@@H](CCC(=O)O)C(=O)N[C@@H](Cc1c[nH]cn1)C(=O)N[C@@H](CC(C)C)C(=O)N[C@H](C(=O)N[C@@H](CCC(=O)O)C(=O)N[C@@H](CCCCN)C(=O)NC(C)(C)C(=O)N[C@@H](CCCCN)C(=O)N[C@@H](CCC(=O)O)C(=O)N[C@@H](Cc1ccccc1)C(=O)N[C@@H](CC(C)C)C(N)=O)C(C)C [Compound 71, [Aib8,Glu23,Lys24,Val25,Glu30,His31,Glu34,Lys35,Aib36,Lys37]-GLP-1-(7-37)-peptidyl-Glu-Phe-Leu amide] (H-H[Aib]EGTFTSDVSSYLEGEKVKEFIEHLVEK[Aib]KEFL-NH2) | 130 |
| CC[C@H](C)[C@H](NC(=O)[C@H](Cc1ccccc1)NC(=O)[C@H](CCC(N)=O)NC(=O)[C@H](CCCCN)NC(=O)[C@@H](NC(=O)[C@H](C)NC(=O)[C@H](CCC(N)=O)NC(=O)CNC(=O)[C@H](CCC(=O)O)NC(=O)[C@H](CC(C)C)NC(=O)[C@H](Cc1ccc(O)cc1)NC(=O)[C@H](CO)NC(=O)[C@H](CO)NC(=O)[C@@H](NC(=O)[C@H](CC(=O)O)NC(=O)[C@H](CO)NC(=O)[C@@H](NC(=O)[C@H](Cc1ccccc1)NC(=O)[C@@H](NC(=O)CNC(=O)[C@H](CCC(=O)O)NC(=O)C(C)(C)NC(=O)[C@@H](N)Cc1c[nH]cn1)[C@@H](C)O)[C@@H](C)O)C(C)C)C(C)C)C(=O)N[C@@H](C)C(=O)N[C@@H](Cc1c[nH]c2ccccc12)C(=O)N[C@@H](CC(C)C)C(=O)N[C@H](C(=O)N[C@@H](CCC(=O)O)C(=O)N[C@@H](CCCCN)C(=O)NC(C)(C)C(=O)N[C@@H](C)C(=O)N[C@@H](CCC(=O)O)C(=O)N[C@@H](Cc1ccccc1)C(=O)N[C@@H](CC(C)C)C(N)=O)C(C)C [Compound 72] (H-H[Aib]EGTFTSDVSSYLEGQAVKQFIAWLVEK[Aib]AEFL-NH2) | 78 |
| CC[C@H](C)[C@H](NC(=O)[C@H](Cc1ccccc1)NC(=O)[C@H](CCC(N)=O)NC(=O)[C@H](CCCCN)NC(=O)[C@@H](NC(=O)[C@H](C)NC(=O)[C@H](CCC(N)=O)NC(=O)CNC(=O)[C@H](CCC(=O)O)NC(=O)[C@H](CC(C)C)NC(=O)[C@H](Cc1ccc(O)cc1)NC(=O)[C@H](CO)NC(=O)[C@H](CO)NC(=O)[C@@H](NC(=O)[C@H](CC(=O)O)NC(=O)[C@H](CO)NC(=O)[C@@H](NC(=O)[C@H](Cc1ccccc1)NC(=O)[C@@H](NC(=O)CNC(=O)[C@H](CCC(=O)O)NC(=O)C(C)(C)NC(=O)[C@@H](N)Cc1c[nH]cn1)[C@@H](C)O)[C@@H](C)O)C(C)C)C(C)C)C(=O)N[C@@H](C)C(=O)N[C@@H](Cc1c[nH]c2ccccc12)C(=O)N[C@@H](CC(C)C)C(=O)N[C@H](C(=O)N[C@@H](CC(N)=O)C(=O)N[C@@H](CCCCN)C(=O)NC(C)(C)C(=O)N[C@@H](C)C(=O)N[C@@H](CCC(=O)O)C(=O)N[C@@H](Cc1ccccc1)C(=O)N[C@@H](CC(C)C)C(N)=O)C(C)C [Compound 74] (H-H[Aib]EGTFTSDVSSYLEGQAVKQFIAWLVNK[Aib]AEFL-NH2) | 91 |
| CC[C@H](C)[C@H](NC(=O)[C@H](Cc1ccccc1)NC(=O)[C@H](CCC(=O)O)NC(=O)[C@H](CCCCN)NC(=O)[C@H](C)NC(=O)[C@H](C)NC(=O)[C@H](CCC(N)=O)NC(=O)CNC(=O)[C@H](CCC(=O)O)NC(=O)[C@H](CC(C)C)NC(=O)[C@H](Cc1ccc(O)cc1)NC(=O)[C@H](CO)NC(=O)[C@H](CO)NC(=O)[C@@H](NC(=O)[C@H](CC(=O)O)NC(=O)[C@H](CO)NC(=O)[C@@H](NC(=O)[C@H](Cc1ccccc1)NC(=O)[C@@H](NC(=O)CNC(=O)[C@H](CCC(=O)O)NC(=O)C(C)(C)NC(=O)[C@@H](N)Cc1c[nH]cn1)[C@@H](C)O)[C@@H](C)O)C(C)C)C(=O)N[C@@H](C)C(=O)N[C@@H](Cc1c[nH]c2ccccc12)C(=O)N[C@@H](CC(C)C)C(=O)N[C@H](C(=O)N[C@@H](CCCCN)C(=O)NCC(=O)N[C@H](C(=O)NCC(=O)N[C@@H](CCC(=O)O)C(=O)N[C@@H](Cc1ccccc1)C(=O)N[C@@H](CC(C)C)C(N)=O)C(C)C)C(C)C [Compound 75] | 68 |
